Source: the NIST ThermoML archive (doi:10.1021/je901020a)
Values joined by “and” are separate entries in the source; they are usually repeats but may differ in a detail not shown here. Equal values may be shown once.

Columns and labels:
[1] = refractive index (Na D-line) (dimensionless); details: 101.33 kPa, Liquid, Standard Abbe refractometry
[2] = 101 kPa, Liquid; for speed of sound: Pulse-echo method
[3] = xn = mol fraction of the nth substance listed; details: 101 kPa, Liquid; for speed of sound: Pulse-echo method
[4] = refractive index (Na D-line) (dimensionless); xn = mol fraction of the nth substance listed; details: 101 kPa, Liquid, Standard Abbe refractometry

Cc1cc(C)cc(C)c1 [1,3,5-trimethylbenzene]
Details | mass density, [2] [kg/m3] | refractive index, [1] | speed of sound, [2] [m/s]
298.15 K | 861.1 | 1.49693 | 1336
313.15 K | 848.8 | 1.48923 | 1277

Cc1cccc(C)c1 [1,3-dimethylbenzene]
Details | mass density, [2] [kg/m3] | refractive index, [1] | speed of sound, [2] [m/s]
298.15 K | 859.8 | 1.49466 | 1321
313.15 K | 846.9 | 1.48653 | 1259

C1CCCC1 [cyclopentane]
Details | mass density, [2] [kg/m3] | refractive index, [1] | speed of sound, [2] [m/s]
298.15 K | 740 | 1.40292 | 1204
313.15 K | 725 | 1.39456 | 1130

Cc1ccc(C)cc1 [1,4-dimethylbenzene]
Details | mass density, [2] [kg/m3] | refractive index, [1] | speed of sound, [2] [m/s]
298.15 K | 856.6 | 1.49312 | 1310
313.15 K | 843.5 | 1.48444 | 1248

Cc1ccccc1C [1,2-dimethylbenzene]
Details | mass density, [2] [kg/m3] | refractive index, [1] | speed of sound, [2]
298.15 K | 875.4 | 1.50262 | 1350 m/s
313.15 K | 862.9 | 1.49466 | 1290 m/s and 1289 m/s

CC1CCCCC1 [methylcyclohexane] + Cc1ccc(C)cc1
Details | mass density, [3] [kg/m3] | refractive index, [4] | speed of sound, [3] [m/s]
298.15 K, x1 = 0.0513 | 851.4 | 1.48906 | 1303
298.15 K, x1 = 0.0979 | 846.7 | 1.48531 | 1297
298.15 K, x1 = 0.1917 | 837.2 | 1.47789 | 1285
298.15 K, x1 = 0.3009 | 826.5 | 1.46944 | 1272
298.15 K, x1 = 0.3971 | 817.3 | 1.46214 | 1262
298.15 K, x1 = 0.4963 | 808 | 1.4548 | 1252
298.15 K, x1 = 0.5987 | 798.8 | 1.44757 | 1243
298.15 K, x1 = 0.6966 | 789.9 | 1.44052 | 1234
298.15 K, x1 = 0.7958 | 781.6 | 1.43389 | 1227
298.15 K, x1 = 0.8922 | 773.4 | 1.42739 | 1221
298.15 K, x1 = 0.9501 | 768.9 | 1.42377 | 1217
298.15 K, x1 = 1 | 765 | 1.42062 | 1215
313.15 K, x1 = 0.0506 | 838.4 | 1.48121 | 1242
313.15 K, x1 = 0.1051 | 832.9 | 1.4771 | 1234
313.15 K, x1 = 0.204 | 823.1 | 1.46914 | 1221
313.15 K, x1 = 0.3096 | 812.6 | 1.46083 | 1209
313.15 K, x1 = 0.4064 | 803.4 | 1.45361 | 1198
313.15 K, x1 = 0.5061 | 794 | 1.44635 | 1188
313.15 K, x1 = 0.605 | 785.1 | 1.43928 | 1179
313.15 K, x1 = 0.7057 | 776.2 | 1.43227 | 1170
313.15 K, x1 = 0.8112 | 767.2 | 1.42509 | 1162
313.15 K, x1 = 0.9095 | 759 | 1.41853 | 1155
313.15 K, x1 = 0.9599 | 755 | 1.41538 | 1152
313.15 K, x1 = 1 | 751.9 | 1.41274 | 1150

CC1CCCCC1 [methylcyclohexane] + Cc1ccccc1C
Details | mass density, [3] [kg/m3] | refractive index, [4] | speed of sound, [3] [m/s]
298.15 K, x1 = 0.0558 | 868.7 | 1.49758 | 1340
298.15 K, x1 = 0.0973 | 863.5 | 1.49375 | 1333
298.15 K, x1 = 0.1875 | 852.9 | 1.48587 | 1318
298.15 K, x1 = 0.2979 | 839.7 | 1.47605 | 1300
298.15 K, x1 = 0.4084 | 827 | 1.46659 | 1283
298.15 K, x1 = 0.4965 | 817.1 | 1.45929 | 1271
298.15 K, x1 = 0.5946 | 806.3 | 1.45128 | 1259
298.15 K, x1 = 0.6948 | 795.5 | 1.44332 | 1246
298.15 K, x1 = 0.7944 | 785.2 | 1.43568 | 1235
298.15 K, x1 = 0.8912 | 775.6 | 1.42852 | 1225
298.15 K, x1 = 0.9497 | 769.9 | 1.42429 | 1219
298.15 K, x1 = 1 | 765 | 1.42062 | 1215
313.15 K, x1 = 0.049 | 856.8 | 1.49036 | 1281
313.15 K, x1 = 0.0983 | 850.8 | 1.48589 | 1272
313.15 K, x1 = 0.1972 | 838.9 | 1.47705 | 1255
313.15 K, x1 = 0.2832 | 828.7 | 1.46962 | 1241
313.15 K, x1 = 0.403 | 814.8 | 1.45951 | 1222
313.15 K, x1 = 0.5001 | 803.8 | 1.4514 | 1208
313.15 K, x1 = 0.598 | 793 | 1.44349 | 1195
313.15 K, x1 = 0.6977 | 782.3 | 1.43558 | 1182
313.15 K, x1 = 0.7947 | 772.2 | 1.4281 | 1171
313.15 K, x1 = 0.9013 | 761.5 | 1.42003 | 1160
313.15 K, x1 = 0.9474 | 756.9 | 1.4165 | 1154
313.15 K, x1 = 1 | 751.9 | 1.41274 | 1150
